ChEMBL document CHEMBL4610061, “Identification of novel GPR81 agonist lead series for target biology evaluation” (Bioorg Med Chem Lett, 2020)
Values after ≈ are worked out from the molar mass of the structure shown. Active and inactive are the calls of the source. The calls are words filed in the database; no cut-off is given here.

Key:
Homo sapiens = organism: Homo sapiens; experiment: Selectivity index, ratio of IC50 for displacement of [125I]-ghrelin from human GHS-R1a stably expressed in HEK cell membrane measured after 60 mins by gamma counter method to EC50 for agonist activity at human GPR81 overexpressed in CHO cells assessed as inhibition of forskolin-stimulated cAMP production; format: cell membranes
[1] = target: Growth hormone secretagogue receptor type 1 (Homo sapiens, UniProt Q92847); experiment: Displacement of [125I]-ghrelin from human GHS-R1a stably expressed in HEK cell membrane measured after 60 mins by gamma counter method; format: cell membranes
Growth hormone secretagogue receptor type 1, sequence (Q92847 whole entry): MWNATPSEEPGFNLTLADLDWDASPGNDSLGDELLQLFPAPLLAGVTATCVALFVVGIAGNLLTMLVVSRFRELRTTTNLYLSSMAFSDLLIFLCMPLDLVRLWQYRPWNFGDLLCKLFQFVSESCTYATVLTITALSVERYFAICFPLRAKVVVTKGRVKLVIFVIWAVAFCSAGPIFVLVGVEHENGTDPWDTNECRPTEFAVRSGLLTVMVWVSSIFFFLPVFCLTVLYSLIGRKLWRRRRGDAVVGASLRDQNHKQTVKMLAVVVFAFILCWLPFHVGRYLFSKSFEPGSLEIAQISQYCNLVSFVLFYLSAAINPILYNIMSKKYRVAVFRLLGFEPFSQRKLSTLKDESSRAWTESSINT

[2] = target: Hydroxycarboxylic acid receptor 2 (Homo sapiens, UniProt Q8TDS4); experiment: Agonist activity at human GPR109A receptor
Hydroxycarboxylic acid receptor 2, sequence (Q8TDS4 whole entry): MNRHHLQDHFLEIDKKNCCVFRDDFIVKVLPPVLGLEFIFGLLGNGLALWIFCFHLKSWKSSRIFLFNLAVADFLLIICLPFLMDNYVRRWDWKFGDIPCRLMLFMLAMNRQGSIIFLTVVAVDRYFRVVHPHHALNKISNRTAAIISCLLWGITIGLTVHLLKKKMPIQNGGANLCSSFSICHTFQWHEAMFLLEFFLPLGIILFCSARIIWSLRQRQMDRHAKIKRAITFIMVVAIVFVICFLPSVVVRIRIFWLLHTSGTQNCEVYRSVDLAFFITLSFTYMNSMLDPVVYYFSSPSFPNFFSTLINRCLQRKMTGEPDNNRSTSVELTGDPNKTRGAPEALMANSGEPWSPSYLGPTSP

[3] = target: T1, Hydroxycarboxylic acid receptor 1 (Homo sapiens, UniProt Q9BXC0); experiment: Agonist activity at human GPR81 overexpressed in CHO cells assessed as inhibition of forskolin-stimulated cAMP production; format: functional, cell-based
T1 sequence (Q9BXC0 whole entry): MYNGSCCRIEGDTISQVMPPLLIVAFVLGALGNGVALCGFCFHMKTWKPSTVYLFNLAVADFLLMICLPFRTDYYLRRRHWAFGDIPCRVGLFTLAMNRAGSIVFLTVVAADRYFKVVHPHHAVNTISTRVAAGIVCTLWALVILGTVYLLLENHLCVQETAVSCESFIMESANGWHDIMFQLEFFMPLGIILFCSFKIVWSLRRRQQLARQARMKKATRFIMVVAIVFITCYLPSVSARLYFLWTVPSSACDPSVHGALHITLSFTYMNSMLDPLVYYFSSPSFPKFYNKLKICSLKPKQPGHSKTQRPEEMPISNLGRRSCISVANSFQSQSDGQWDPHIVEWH

[4] = Solubility of compound; format: physicochemical
[5] = Distribution coefficient, logD of compound at pH 7.4; format: physicochemical; settings: octanol/water
[6] = target: T2, Protein Gpr81 (Rattus norvegicus) (UniProt G3V906); experiment: Agonist activity at rat GPR81 overexpressed in HEK293 cells by [35S]GTPgammaS binding assay; format: cell-based
T2 sequence (whole entry): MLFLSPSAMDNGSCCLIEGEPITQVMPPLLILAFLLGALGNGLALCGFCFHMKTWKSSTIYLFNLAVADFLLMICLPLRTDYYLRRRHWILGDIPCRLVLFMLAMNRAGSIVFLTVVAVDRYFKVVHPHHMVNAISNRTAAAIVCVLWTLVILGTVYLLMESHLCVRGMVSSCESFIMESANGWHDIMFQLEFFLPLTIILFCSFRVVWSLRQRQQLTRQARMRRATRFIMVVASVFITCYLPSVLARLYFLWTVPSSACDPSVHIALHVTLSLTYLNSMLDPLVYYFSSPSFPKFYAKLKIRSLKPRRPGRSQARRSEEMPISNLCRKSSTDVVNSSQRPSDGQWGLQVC

[7] = target: T1, Hydroxycarboxylic acid receptor 1; experiment: Agonist activity at human GPR81 overexpressed in CHO cells assessed as inhibition of forskolin-stimulated cAMP production at 10 uM relative to control; format: functional, cell-based

IC50 [1] [µM]	EC50 [2] [nM]	EC50 [3] [nM]	solubility [4] [µM]	logD [5]	Activity [6]	Efficacy [7] [%]	Compound	Ratio IC50/EC50 (Homo sapiens)
> 50	> 6300	600	323 (≈ 201 µg/mL)	2			CCOc1cc(Cl)c(C(=O)Nc2nc3ccc(S(=O)(=O)CCCN4CCN(C)CC4)cc3s2)cc1N1CCOCC1	> 80
> 50	> 11000	410	1.5 (≈ 0.795 µg/mL)	2.8			CCOc1cc(Cl)c(C(=O)Nc2nc3ccc(CN4CCN(C)CC4)cc3s2)cc1N1CCOCC1	> 80
> 30	1600	110	5 (≈ 2.66 µg/mL)	2.9			CCOc1cc(Cl)c(C(=O)Nc2nc3ccc(OC4CCN(C)CC4)cc3s2)cc1N1CCOCC1	> 80
0.008	123	23	0.2 (≈ 0.121 µg/mL)	3	Active		CCOc1cc(Cl)c(C(=O)NC(=O)Nc2nc3ccc(S(=O)(=O)C4CCN(C)CC4)cc3s2)cc1-n1cccn1	
		895		1.7			CCOc1cc(Cl)c(C(=O)NC(=O)Nc2nc3c(s2)CN(C(=O)CO)CC3)cc1N1CCOCC1	
		103		4.2			CCOc1cc(Cl)c(C(=O)NC(=O)Nc2ncc(-c3ccccc3)s2)cc1N1CCOCC1	
		120					CCOc1cc(Cl)c(C(=O)NC(=O)Nc2nc3c(s2)CCCC3)cc1N1CCOCC1	
		32		3.3			CCOc1cc(Cl)c(C(=O)NC(=O)Nc2nc3ccc(CN4CCN(C)CC4)cc3s2)cc1N1CCO[C@H](C)C1	
		166		2.2			CCOc1cc(Cl)c(C(=O)NC(=O)Nc2nc3ccc(S(=O)(=O)C4CCN(C)CC4)cc3s2)cc1N1CCOCC1	
		769		3.2			CCOc1cc(Cl)c(C(=O)NC(=O)Nc2ncc(C)s2)cc1N1CCOCC1	
27	660	54	95 (≈ 61.8 µg/mL)	2.7			CCOc1cc(Cl)c(C(=O)Nc2nc3ccc(S(=O)(=O)CCCN4CCN(C)CC4)cc3s2)cc1N1C[C@@H](C)O[C@@H](C)C1	500
		> 3700		2.9			CCOc1cc(C)c(C(=O)NC(=O)Nc2nc3ccc(CN4CCN(C)CC4)cc3s2)cc1N1CCOCC1	
1.3	610	21	< 0.7	> 3.8			CCOc1cc(Cl)c(-c2ccc(-c3nc4ccccc4s3)c(=O)[nH]2)cc1N1CCOCC1	
		7000		2.3		74	CN1CCC(S(=O)(=O)c2ccc3nc(NC(=O)NC(=O)c4cc(-n5cccn5)ccc4Cl)sc3c2)CC1	
		740		3		47	CCOc1ccc(C(=O)NC(=O)Nc2nc3ccc(CN4CCN(C)CC4)cc3s2)cc1N1CCOCC1	
		299		4			CCOc1cc(Cl)c(C(=O)NC(=O)Nc2nc3ccccc3s2)cc1N1CCOCC1	
		22		4			CCOc1cc(Cl)c(C(=O)NC(=O)Nc2nc3ccc(CN4CCN(C)CC4)cc3s2)cc1-n1cccc1	
5.2	> 22000	490	< 0.31	3.9			CCOc1cc(Cl)c(-c2ncc(-c3nc4ccccc4s3)c(=O)[nH]2)cc1N1CCOCC1	
		6100		2.5		70	Cc1cc(Cl)c(C(=O)NC(=O)Nc2nc3ccc(S(=O)(=O)C4CCN(C)CC4)cc3s2)cc1-n1cccn1	
		560		3.4			CCOc1ccc(C(=O)NC(=O)Nc2nc3ccc(CN4CCN(C)CC4)cc3s2)c(Cl)c1	

IC50 [1] [µM]	EC50 [2] [nM]	EC50 [3] [nM]	solubility [4] [µM]	logD [5]	Activity [6]	Efficacy [7] [%]	Compound	Ratio IC50/EC50 (Homo sapiens)
		360		3.9			CCOc1cc(Cl)c(C(=O)NC(=O)Nc2nc3ccc(CN4CCN(C)CC4)cc3s2)cc1-c1ccn[nH]1	
21	1400	160	470 (≈ 299 µg/mL)	2.4			CCOc1cc(Cl)c(C(=O)Nc2nc3ccc(S(=O)(=O)CCCN4CCN(C)CC4)cc3s2)cc1N1CCO[C@H](C)C1	> 80
		3600		2.4		70	CN1CCC(S(=O)(=O)c2ccc3nc(NC(=O)NC(=O)c4cc(-n5cccn5)c(F)cc4Cl)sc3c2)CC1	
> 50	12000	1900	0.09 (≈ 0.0376 µg/mL)	4.3			CCOc1cc(Cl)c(C(=O)Nc2nc3ccccc3s2)cc1N1CCOCC1	> 80
> 50		> 16000	492 (≈ 289 µg/mL)	2.5			CCOc1cc(Cl)c(C(=O)N(C)C(=O)Nc2nc3ccc(CN4CCN(C)CC4)cc3s2)cc1N1CCOCC1	
		260		4.4			CCOc1cc(Cl)c(C(=O)NC(=O)Nc2cc3ccccc3s2)cc1N1CCOCC1	
> 50	1900	75	29 (≈ 15.8 µg/mL)	2.6			CCOc1cc(Cl)c(-c2ccc(-c3nc4c(s3)CN(C(=O)COC)CC4)c(=O)[nH]2)cc1N1CCOCC1	
10 to 14	1400 to 3200	270 to 350	155 to 231 (≈ 101 to 150 µg/mL)	3			CCOc1cc(Cl)c(C(=O)Nc2nc3ccc(S(=O)(=O)CCCN4CCN(C)CC4)cc3s2)cc1N1C[C@H](C)O[C@@H](C)C1	> 80
		719		2.3			CCOc1cc(Cl)c(C(=O)NC(=O)Nc2nc3c(s2)CN(C(C)=O)CC3)cc1N1CCOCC1	
> 18	1600	240	61 (≈ 38.4 µg/mL)	1.6			CCOc1cc(Cl)c(-c2ncc(-c3nc4ccc(S(=O)(=O)C5CCN(C)CC5)cc4s3)c(=O)[nH]2)cc1N1CCOCC1	
1.9	910	22	7 (≈ 3.72 µg/mL)	2.4			CCOc1cc(Cl)c(-c2ccc(-c3nc4c(s3)CN(C(=O)CO)CC4)c(=O)[nH]2)cc1N1CCOCC1	
		1400		3.3			CCOc1cc(C(F)(F)F)c(C(=O)NC(=O)Nc2nc3ccc(CN4CCN(C)CC4)cc3s2)cc1N1CCOCC1	
		13		4			CCOc1cc(Cl)c(C(=O)NC(=O)Nc2nc3ccc(CN4CCN(C)CC4)cc3s2)cc1N1CCCC1	
0.96	2160	74	4 (≈ 2.29 µg/mL)	2.9	Active		CCOc1cc(Cl)c(C(=O)NC(=O)Nc2nc3ccc(CN4CCN(C)CC4)cc3s2)cc1N1CCOCC1	
> 50		> 33000	20 (≈ 10.9 µg/mL)				CCOc1cc(Cl)c(NC(=O)Nc2nc3ccc(CN4CCN(C)CC4)cc3s2)cc1N1CCOCC1	
0.46	37	5	< 0.5	3.4			CCOc1cc(Cl)c(-c2ccc(-c3nc4ccc(S(=O)(=O)C5CCN(C)CC5)cc4s3)c(=O)[nH]2)cc1N1CCOCC1	
> 4.97		> 33000	188 (≈ 105 µg/mL)	3.2			CCOc1cc(Cl)c(CNC(=O)Nc2nc3ccc(CN4CCN(C)CC4)cc3s2)cc1N1CCOCC1	
		19		3.8			CCOc1cc(Cl)c(C(=O)NC(=O)Nc2nc3ccc(CN4CCN(C)CC4)cc3s2)cc1-n1cccn1	
> 50	> 9000	740	1 (≈ 0.579 µg/mL)	2.5			CCOc1cc(Cl)c(C(=O)Nc2nc3ccc(S(=O)(=O)C4CCN(C)CC4)cc3s2)cc1N1CCOCC1	> 80
